Data published in article PMC6447865, “Novel Group of Imidazole Derivatives as Atypical Selective Cyclooxygenase-2 Inhibitors: Design, Synthesis and Biological Evaluation” (Iranian Journal of Pharmaceutical Research : IJPR, 2018).

Columns and labels:
[1] = molecular target: T1, COX-1 enzyme (Ovis aries, UniProt P05979); assay: biochemical; conditions: mean of two values; enzyme incubated with inhibitor 2 min, pH 8.0, 25 °C; arachidonic acid substrate; absorbance 590 nm
T1 construct: purchased Cayman 701050
T1 sequence (P05979 25-600): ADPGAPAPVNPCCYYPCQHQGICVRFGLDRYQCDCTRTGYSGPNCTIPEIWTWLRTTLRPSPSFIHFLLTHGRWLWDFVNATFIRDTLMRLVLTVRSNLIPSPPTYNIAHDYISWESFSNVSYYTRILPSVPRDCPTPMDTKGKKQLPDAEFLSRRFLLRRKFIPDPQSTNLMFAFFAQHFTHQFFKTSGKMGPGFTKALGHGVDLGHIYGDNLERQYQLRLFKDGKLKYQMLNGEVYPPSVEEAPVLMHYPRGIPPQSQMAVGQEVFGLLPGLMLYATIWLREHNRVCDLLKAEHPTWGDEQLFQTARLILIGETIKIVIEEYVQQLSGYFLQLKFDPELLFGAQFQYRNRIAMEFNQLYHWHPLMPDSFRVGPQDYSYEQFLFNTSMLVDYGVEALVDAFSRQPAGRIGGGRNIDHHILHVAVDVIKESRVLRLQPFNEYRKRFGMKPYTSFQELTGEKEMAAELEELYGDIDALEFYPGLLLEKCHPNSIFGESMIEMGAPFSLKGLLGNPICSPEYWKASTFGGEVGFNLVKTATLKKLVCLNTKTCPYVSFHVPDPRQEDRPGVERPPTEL
Description: (§1) All test samples were dissolved in DMSO and absorbance was read at 590 nm. The IC50 amounts of the novel compounds were analyzed using nonlinear regression with Dos-response inhibition parameter by the activity base software package (Program Prism, Graph Pad, SanDiego, CA).

[2] = molecular target: T2, COX-2 enzyme (Homo sapiens, UniProt P35354); assay: biochemical; conditions: for IC50: mean of two values, enzyme incubated with inhibitor 2 min, pH 8.0, 25 °C, arachidonic acid substrate, absorbance 590 nm; for COX-2 S.I. (in-vitro COX-2 selectivity index, COX-1/COX-2): ratio IC50 COX-1 / IC50 COX-2
T2 construct: purchased Cayman 701050
T2 sequence (P35354 18-604): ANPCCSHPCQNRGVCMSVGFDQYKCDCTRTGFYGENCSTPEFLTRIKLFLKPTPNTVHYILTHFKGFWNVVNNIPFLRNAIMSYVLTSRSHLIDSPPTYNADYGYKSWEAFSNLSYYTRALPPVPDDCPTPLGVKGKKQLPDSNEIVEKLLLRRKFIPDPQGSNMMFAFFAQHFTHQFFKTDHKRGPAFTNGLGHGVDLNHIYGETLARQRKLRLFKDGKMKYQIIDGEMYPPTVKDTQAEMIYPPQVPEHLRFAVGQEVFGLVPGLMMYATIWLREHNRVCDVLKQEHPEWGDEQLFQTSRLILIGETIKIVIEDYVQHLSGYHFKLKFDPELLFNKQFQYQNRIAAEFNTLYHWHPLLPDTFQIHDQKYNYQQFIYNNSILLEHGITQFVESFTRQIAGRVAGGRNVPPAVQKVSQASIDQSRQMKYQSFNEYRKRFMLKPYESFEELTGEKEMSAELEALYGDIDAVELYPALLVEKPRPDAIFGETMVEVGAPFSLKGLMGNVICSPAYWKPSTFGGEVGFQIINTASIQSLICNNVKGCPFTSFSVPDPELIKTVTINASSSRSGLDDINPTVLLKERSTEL
Description: as §1

IC50 [1]	IC50 [2]	COX-2 S.I. (in-vitro COX-2 selectivity index, COX-1/COX-2) [2]	melting point	SMILES
87 µM	3.2 µM	27	114 to 115 °C	CS(=O)(=O)c1ncc(CNc2ccccc2)n1Cc1ccccc1 [Compound 5a, N-((1-benzyl-2-(methylsulfonyl)-1H-imidazol-5-yl)methyl)benzamine]
82 µM	0.71 µM	115	152 °C	COc1ccc(NCc2cnc(S(C)(=O)=O)n2Cc2ccccc2)cc1 [Compound 5b, N-((1-benzyl-2-(methylsulfonyl)-1H-imidazol-5-yl)methyl)-4-methoxybenzamine]
78 µM	2.8 µM	28	155 °C	CS(=O)(=O)c1ncc(CNc2ccc(Br)cc2)n1Cc1ccccc1 [Compound 5c, N-((1-benzyl-2-(methylsulfonyl)-1H-imidazol-5-yl)methyl)-4-bromobenzamine]
78 µM	3 µM	26	177 °C	CS(=O)(=O)c1ncc(CNc2ccc([N+](=O)[O-])cc2)n1Cc1ccccc1 [Compound 5d, N-((1-benzyl-2-(methylsulfonyl)-1H-imidazol-5-yl)methyl)-4-nitrobenzamine]
138 µM	3.6 µM	38	142 °C	CS(=O)(=O)c1ncc(CNc2ccc(Cl)cc2)n1Cc1ccccc1 [Compound 5e, N-((1-benzyl-2-(methylsulfonyl)-1H-imidazol-5-yl)methyl)-4-chlorobenzamine]
